Molecules are shown by their SMILES.

Consider 3 compounds from patent US20200079757A1, “COMPOUNDS FOR THE TREATMENT OF RESPIRATORY DISEASES” (THE UNIVERSITY OF MELBOURNE, priority 2017, published 2020).

Test [1] concerns PAI-1 gene expression in BEAS-2B cells. The test is described as follows: TNF-α and TGF-β induced PAI-1 gene expression in BEAS-2B cells (RT-qPCR). The class given is cell-based. To be noted: for TNFa stimulated PAI-1 expression: 30 min pretreatment 1-10 μM, n=1, similar potency and maxima. Here is the method: The primary assay for the activity of the novel CK1δ/ε inhibitors is the modulation of gene expression in the airway epithelial cell line, the BEAS-2B cells. The assay is conducted under several conditions. Generally, TGF-β or TNF-α is used to elicit fibrogenic or inflammatory genes, respectively. The agents are added at a concentration of 10 μM, or at the indicated concentrations for a period of 30 min prior to the addition of TGF-β/TNF-α which are incubated for a further 20 hours before the addition, in some experiments of the glucocorticoid, dexamethasone (Dex, 30 nM) for the final 4 hours of the experiment, prior to harvest of cellular RNA to measure by RT-qPCR the levels of mRNA of marker genes for inflammation and fibrogenesis. The inhaled corticosteroid (ICS), budesonide is also used in some experiments. Furthermore, the supernatants are harvested at the end of the incubation periods in selected experiments to measure the levels of CSF-2 or IL-8 by ELISA as described in (Tran et al. (2005) British Journal of Pharmacology, 145, 123-131). Prior to experimentation, BEAS-2B and A549 cells were incubated in serum-free DMEM containing 0.25% bovine serum albumin (BSA) and insulin-transferrin-selenium—containing supplement (Monomed A; CSL, Parkville, Melbourne, Australia). Where indicated, cells were treated with one of the series of synthesised compounds (0.3-10 μM) prior to exposure to 100 pM TGF-β1 (R&D Systems, Minneapolis, Minn.) or 300 pM bFGF (Promega, Madison, Wis.). Total RNA was extracted from cultured cells using illustra RNAspin Mini RNA Isolation Kit (GE Healthcare). RNA extracts were reverse-transcribed into cDNA using High-Capacity RNA-to-cDNA Kit (Applied Biosystems). Real-time PCR was then performed using a QuantStudio 6 Flex Real-Time PCR System using iTaq Universal SYBR green supermix and the following thermal protocol: 50° C. (2 min), 95° C. (10 min), then 40 cycles of 95° C. (15 sec), 60° C. (1 min). The threshold cycle (CT) values determined for target genes were normalized against those obtained for 18S ribosomal RNA (18S rRNA), which was included as internal control. The generation of specific PCR products was confirmed by dissociation curve analysis. In the same experiment as described in FIG. 1, the expression of the fibrogen plasminogen activator inhibitor-1 was measured (see FIG. 2). The levels of this gene are increased by both TGF-β and by Dex and they synergise when added together. The CK1 inhibitors concentration-dependently reduce the effects of each of the stimuli and further reduce baseline expression. Their potency in this effect is similar, regardless of the condition being considered. In a separate experiment BEAS-2B cells were exposed to TNF-α with(out) 30 min pretreatment with either SS9-010 or PF670462 (1-10 μM). RNA was then extracted and analyzed by RT-qPCR. Each agent inhibited TNFa stimulated PAI-1 expression with similar potency and maxima (see FIG. 3). Data are presented as mean±SD for n=1 (three technical replicates).

Another test relates to liver gene expression. Nature of the test: Liver fibrogenic gene expression after oral (gavage) dosing in bleomycin-treated mice. The class given is in vivo, mouse. The note with it: female C57BL6 mice, 30 mg/kg po once daily day −1 to 3, 3 days after transnasal bleomycin. Here is the method: FIG. 11. The effects of oral (gavage) PF670462 or […] were investigated in female C57BL6 mice, with a focus on liver gene expression. […] Data are presented as mean±SEM (n=4). In studies to ascertain the effect of oral administration of either PF670462 or SS8-058 we harvested the liver on day 3 from mice that had been treated transnasally with bleomycin on day 0 to measure gene expression of products that are implicated in fibrogenesis. Mice were treated once daily by gavage from day −1 to day 3 with either PF670462 or SS8-058 (30 mg/kg, po).

For the next test, the system named is TGFβ-activated A549. Nature of the test: TGFβ-activated A549 gene expression (modulation of mRNA level, RT-qPCR). The note with it: for CTGF expression / PAI-1 expression / TGF-β-induced suppression of E-cadherin: A549, 0.1-10 μM prior to TGF-β (100 pM) 24 hr; for IC50: Homo sapiens, read-out: -Log IC50 ± SEM (modulation of mRNA level), N-Cadherin induction (converted). The class given is cell-based. For orientation: In qPCR the cycle at which signal appears reflects the starting amount.

The mark [2] stands for this setting: A549, agent 0.1-10 μM before TGF-β (100 pM) 24 hr.

Regarding `Cl.Nc1nccc(-c2c(-c3ccc(F)cc3)ncn2C2CCCCC2)n1` [PF670462, 4-(1-Cyclohexyl-4-(4-fluorophenyl)-1H-imidazol-5-yl)pyrimidin-2-amine hydrochloride, reference compound], in test [1], the “TNFa stimulated PAI-1 expression” value is given as “inhibited”. In addition, in test [1] (agent 3 μM), the “PAI-1 mRNA level, TGF-β” value amounted to 1.30 ± 0.18 fold control and the “PAI-1 mRNA level, TNF-α (n = 2)” value is 0.74 fold control. Besides, in test [1] (agent 10 μM), the “PAI-1 mRNA level, TGF-β” value stood at 1.64 ± 0.27 fold control; the “PAI-1 mRNA level, TNF-α (n = 2)” value came out at 0.47 fold control; the “PAI-1 mRNA level, vehicle (no stimulus)” value came to 0.26 ± 0.04 fold control. In the test with liver gene expression, the “liver baseline mRNA level of PAI-1” value is on record as “significant reductions” and the “liver baseline mRNA level of TMP1” value is on record as “significant reductions”. In the test with TGFβ-activated A549, the CTGF expression entry was “concentration-dependently inhibited”, the PAI-1 expression result is reported as “concentration-dependently inhibited” and the “TGF-β-induced suppression of E-cadherin” value is listed as “restored”. Also, in the test with TGFβ-activated A549 (setting [2]), the “-Log IC50 ± SEM (modulation of mRNA level), Vimentin induction” value is reported as “Inactive” and the IC50 (usually the concentration that inhibits the measured activity by half) is 4.47 µM.

On to `CCCCCCCCN1CCC(n2cnc(-c3ccc(F)cc3)c2-c2ccnc(N)n2)CC1` [SS8-058, 4-(4-(4-Fluorophenyl)-1-[1-octylpiperidin-4-yl]-1H-imidazol-5-yl)pyrimidin-2-amine], for which, in test [1] (agent 10 μM), the “PAI-1 mRNA level, TGF-β” value was found to be 9.14 ± 1.23 fold control; the “PAI-1 mRNA level, TNF-α (n = 2)” value was 0.91 fold control; the “PAI-1 mRNA level, vehicle (no stimulus)” value was 0.37 ± 0.04 fold control. For the same compound, in the test on liver gene expression, the “liver baseline mRNA level of PAI-1” value is recorded as “significant reductions” and the “liver baseline mRNA level of TMP1” value is recorded as “significant reductions”.

Turning to `CNc1nccc(-c2c(-c3ccc(F)cc3)ncn2C2CCCCC2)n1` [SS9-010, 4-(1-Cyclohexyl-4-(4-fluorophenyl)-1H-imidazol-5-yl)-N-methylpyrimidin-2-amine], the “TNFa stimulated PAI-1 expression” value in test [1] was “inhibited”. Moreover, in test [1] (agent 10 μM), the “PAI-1 mRNA level, TGF-β” value is given as 0.64 ± 0.05 fold control; the “PAI-1 mRNA level, TNF-α (n = 2)” value worked out at 0.43 fold control; the “PAI-1 mRNA level, vehicle (no stimulus)” value was found to be 0.18 ± 0.00 fold control. Further, in the test on TGFβ-activated A549, the CTGF expression entry is listed as “concentration-dependently inhibited”, the PAI-1 expression result is recorded as “concentration-dependently inhibited” and the “TGF-β-induced suppression of E-cadherin” value is “restored”. Further, the concentration for half-maximal inhibition (IC50) in the test with TGFβ-activated A549 (setting [2]) is 2 µM.
